Columns and labels:
Format in all cases: cell-based
Jurkat cells [1] = test: Flow cytometry of live and heat-treated Jurkat cells stained in PBS or complete media
Jurkat cells [2] = test: Flow cytometry of 50% live/50% dead Jurkat cell mixtures fixed with 4% formaldehyde; details: 25 μM dye, PBS or complete media, substantial majority of live cells
Jurkat cells [3] = test: Flow cytometry of 50% live/50% dead Jurkat cell mixtures, fixed and permeabilized
untreated Jurkat cells = test: Flow cytometry of untreated Jurkat cells in PBS or complete media; details: 25 μM, five minutes, PBS and complete media
Procedure: Populations of untreated Jurkat cells in either PBS or complete media were incubated with 25 μM Compound 2 for five minutes and analyzed by flow cytometry. Results are shown in FIGS. 4A-4B (PBS and complete media, respectively).

Jurkat cells [4] = system: Jurkat cells

N=c1ccc2c(-c3ccc(C(=O)NCCCCCNC(=O)CCCc4ccc(N(CCCl)CCCl)cc4)cc3C(=O)O)c3ccc(N)c(S(=O)(=O)O)c3oc-2c1S(=O)(=O)O [Compound 2]
variation in intensity of staining due to the presence of complete media (Jurkat cells [1]; 25 μM dye, PBS versus complete media): little to no variation in intensity of staining | separation of live and dead cells in histograms (Jurkat cells [1]; 25 μM dye, stained in PBS and in complete media (RPMI+10FBS), 488 nm excitation, 530/30 nm emission): clear separation of live and dead cells | histogram peaks for staining in media versus in PBS (FIGS. 1B, 1C) (Jurkat cells [1]; live and dead cell peaks, media and PBS): overlap | separation of live cells from dead cells (Jurkat cells [2]): two logs of separation | separation of live cells from dead cells (Jurkat cells [3]; fixed and permeabilized, 25 μM dye, PBS or complete media, substantial majority of live cells): two logs of separation | histogram peaks for staining in media versus in PBS (FIGS. 3A, 3B) (Jurkat cells [3]; fixed, permeabilized cells): mostly or partially overlap | strongly labeled peaks corresponding to dead cells (untreated Jurkat cells): 7-14 % of total cells | difference of unstained control from live cell peaks, peak to peak (Jurkat cells [4]): 1-1.5 logs | separation of dead cell peaks from the live cell peaks (Jurkat cells [4]): good separation | separation of dead cells from live cells, peak to peak (Jurkat cells [4]): over 2 logs | staining of live cells (versus unstained control) (Jurkat cells [4]): negligible
